≈ marks a conversion by molar mass, not a printed value. Where “and” joins values, the source holds several entries; their conditions need not be identical. Equal values may be shown once. Marks after values point to notes of the source that are not given here. Blank lines part the entries; values can stand above or below the compound they belong to.
Legend:
[1] = Singlet oxygen scavenging; format: biochemical
Method: (§1) The ROS scavenging ability of DBME was determined using multiple stable ROS radical scavenging assays, such as hydroxyl, superoxide, hypochlorous radical, singlet oxygen and hydrogen peroxide assays by standard procedures.

[2] = Iron chelation assay (Fe2+-ferrozine complex formation); format: biochemical; details: for in vitro iron chelation ability (in words): Fe2+-ferrozine complex; for Iron chelating activity IC50: Fe2+-ferrozine, HEPES pH 7.2
Method: The Fe^2+ chelating activity of DBME, catechin, methyl gallate, purpurin, reserpine, rutin and tannic acid was evaluated according to standard methods. HEPES buffer (20 mM, pH 7.2), DBME (0–120 μg/ml) and a positive control EDTA (0–20 μg/ml) were separately added to a 12.5 μM ferrous sulfate solution, and 75 μM ferrozine was added to start the reaction. The mixture was shaken vigorously and left standing for 20 min at room temperature. Next, the absorbance was measured at 562 nm. All tests were performed six times.

WI-38 cells = experiment: WST-1 cytotoxicity assay; format: cell-based, human; details: 48 hours; for Cytotoxicity assay IC50: WST-1; for cytotoxicity against normal cells (in words): 0-120 μg/ml
Method: (§2) The human lung fibroblast (WI-38) cell line was purchased from the National Centre for Cell Science (NCCS), India. Cells were grown in DMEM supplemented with 10% (v/v) fetal bovine serum (FBS), 100 U/ml penicillin G, 50 μg/ml gentamycin sulfate, 100 μg/ml streptomycin and 2.5 μg/ml amphotericin B. The cell line was maintained in a CO2 incubator at 37°C in a humidified atmosphere containing 5% CO2. Cell proliferation and cell viability were quantified using the WST-1 Cell Proliferation Reagent, Roche diagnostics, according to previously described methods. […] Briefly, WI-38 cells (1 × 10^4 cells/well) were treated with DBME, purpurin, catechin, tannic acid, reserpine, methyl gallate or rutin at doses ranging from 0–120 μg/ml for 48 hours in 96-well culture plates. After treatment, 10 μl of the WST-1 cell proliferation reagent was added to each well followed by 2 hours of incubation at 37°C. Cell proliferation and viability were quantified by measuring the absorbance at 460 nm using a microplate ELISA reader […] EX (Thermo Electron Corporation, USA).

[3] = Hypochlorous acid scavenging; format: biochemical
Method: as §1

[4] = DPPH radical scavenging assay; format: biochemical
Method: The total antioxidant capacity of DBME was evaluated by an ABTS•^+ radical cation decolorization assay in comparison to a trolox standard and 2,2-diphenyl-1-picrylhydrazyl (DPPH) radical scavenging assay. The reducing power of DBME was determined using a previously described method.

iron overloaded mice [5] = experiment: Serum markers (ALAT, ASAT, ALP, bilirubin) in iron overloaded mice; format: in vivo, Swiss albino mice; details: D: desirox 20 mg/kg b.w. oral 21 days
Method: (§3) Mice were divided into six groups of six mice each. One group was labeled as blank (B) and received normal saline. The other five groups received five intraperitoneal injections of iron-dextran at a dose of 100 mg/kg b.w. (one dose every two days). One iron-dextran group (C) was administered normal saline, and the other four groups were orally treated with either 50 mg/kg b.w. (S50), 100 mg/kg b.w. (S100), 200 mg/kg b.w. (S200) DBME or 20 mg/kg b.w. desirox (D) for 21 days beginning on the day following the first iron-dextran injection.
(§4) After treatment, mice were fasted overnight on the 21st day and anesthetized with ethyl ether. Blood was collected by cardiac puncture. Serum from the blood samples was separated using a cooling centrifuge and stored at -80°C until analysis. The liver was washed with ice-cold saline and divided into three parts. One major portion of the liver was cut, weighed and homogenized in 10 volumes of 0.1 M phosphate buffer (pH 7.4) containing 5 mM EDTA and 0.15 M NaCl. The sample was centrifuged at 8,000 g for 30 min at 4°C. The protein concentration in the supernatant was estimated according to Lowry's method using BSA as a standard. The remaining samples were stored at -80°C until further analysis. Another portion of the liver was weighed and digested using an equivolume mixture of sulfuric acid and nitric acid for iron content analysis. A final liver sample was used for histopathological studies.
Alanine amino transferase (ALAT), aspartate amino transferase (ASAT), and bilirubin levels were measured in serum samples using commercial kits from Merck, Mumbai, India. Serum alkaline phosphatase (ALP) was estimated using a kit supplied by Sentinel diagnostics, Italy. The serum ferritin level was measured using an enzyme-linked immunosorbent assay (Monobind Inc., USA) according to the manufacturer’s instructions.

iron overloaded mice [6] = experiment: Liver antioxidants (SOD, CAT, GST, GSH) in iron overloaded mice; format: in vivo, Swiss albino mice; details: D: desirox 20 mg/kg b.w. oral 21 days
Method: as §3, §4
Superoxide dismutase (SOD), catalase (CAT) activity, glutathione-S-transferase (GST) and reduced glutathione (GSH) levels were assayed according to previously reported methods.

Peroxynitrite scavenging = format: biochemical
Method: The RNS scavenging activity of DBME was determined using nitric oxide and peroxynitrite radical scavenging assays.

[7] = Hydroxyl radical scavenging; format: biochemical
Method: as §1

WST-1 cytotoxicity assay = format: cell-based, human; details: human, WI-38 human lung fibroblast cells, WI-38 cells, WST-1
Method: as §2

[8] = Superoxide anion scavenging; format: biochemical
Method: as §1

[9] = Hydrogen peroxide scavenging; format: biochemical
Method: as §1

Singlet oxygen scavenging IC50 [1]: 46.16 ± 1.16 µg/mL
Compound: O=C(O)CCCC[C@@H]1CCSS1 (racemic) [Lipoic acid, lipoic acid]

Iron chelating activity IC50 [2]: 1940.22 ± 179.61 µg/mL
Compound: Oc1cc(O)c2c(c1)OC(c1ccc(O)c(O)c1)C(O)C2 (single isomer, unassigned; (+)) [Catechin, (+) catechin]
in vitro iron chelation ability (in words) [2]: failed to chelate iron
Cytotoxicity assay IC50 (WI-38 cells): 753.56 ± 31.99 µg/mL

Hypochlorous acid (HOCl) scavenging IC50 [3]: 235.96 ± 5.75 µg/mL
DPPH IC50 [4]: 5.29 ± 0.28 µg/mL
Compound: O=C1O[C@H]([C@@H](O)CO)C(O)=C1O [Ascorbic acid, ascorbic acid]

Compound: O=C(O)c1ccc(-n2nc(-c3ccccc3O)nc2-c2ccccc2O)cc1 [D, desirox]
ALAT % Change (iron overloaded mice [5]; change vs B group): 52.79%
ALP % Change (iron overloaded mice [5]; change vs B group): 84.44%
ASAT % Change (iron overloaded mice [5]; change vs B group): 17.36%
Bilirubin % Change (iron overloaded mice [5]; change vs B group): 10.97%
ALAT (iron overloaded mice [5]; iron overloaded mice): 23.29 ± 1.09 ^c ^f Unit/l and 23.29 ± 1.09^cf Unit/l
ALP (iron overloaded mice [5]; iron overloaded mice): 61.01 ± 2.44 ^c ^f Unit/l and 61.01 ± 2.44^cf Unit/l
ASAT (iron overloaded mice [5]; iron overloaded mice): 79.35 ± 4.36 ^a ^f Unit/l and 79.35 ± 4.36^af Unit/l
Bilirubin (iron overloaded mice [5]; iron overloaded mice): 1.68 ± 0.15 ^f mg/dl
CAT % Change (iron overloaded mice [6]; change vs B group): 26.09%
GSH % Change (iron overloaded mice [6]; change vs B group): 5.13%
GST % Change (iron overloaded mice [6]; change vs B group): 35.42%
SOD % Change (iron overloaded mice [6]; change vs B group): 15.31%
CAT (iron overloaded mice [6]; iron overloaded mice): 16.14 ± 3.87 ^c ^f Unit/mg protein and 16.14 ± 3.87^cf Unit/mg protein
GSH (iron overloaded mice [6]; iron overloaded mice): 0.48 ± 0.02 ^a ^f μg/mg protein and 0.48 ± 0.02^af μg/mg protein
GST (iron overloaded mice [6]; iron overloaded mice): 3.72 ± 0.36 ^c ^f Unit/mg protein and 3.72 ± 0.36^cf Unit/mg protein
SOD (iron overloaded mice [6]; iron overloaded mice): 0.47 ± 0.05 ^a ^f Unit/mg protein and 0.47 ± 0.05^af Unit/mg protein

Iron chelating activity IC50 [2]: 1.27 ± 0.05 µg/mL
Compound: O=C(O)CN(CCN(CC(=O)O)CC(=O)O)CC(=O)O [EDTA, Ethylenediamine tetraacetic acid]

Peroxynitrite (ONOO-) scavenging IC50 (Peroxynitrite scavenging): 876 ± 570 µg/mL
Compound: O=C(O)c1cc(O)c(O)c(O)c1 [Gallic acid, gallic acid]

Hydroxyl radical (OH) scavenging IC50 [7]: 571.45 ± 20.12 µg/mL
Compound: OC[C@@H](O)[C@@H](O)[C@H](O)[C@H](O)CO [Mannitol, mannitol]

Iron chelating activity IC50 [2]: 70.86 ± 1.20 µg/mL
Compound: COC(=O)c1cc(O)c(O)c(O)c1 [Methyl gallate, methyl gallate]
IC50 at 48 h (WST-1 cytotoxicity assay): 344 ± 31.3 µg/mL (≈ 1870 µM)

Iron chelating activity IC50 [2]: 252.37 ± 4.08 µg/mL
Compound: O=C1c2ccccc2C(=O)c2c(O)c(O)cc(O)c21 [Purpurin, purpurin]
IC50 at 48 h (WST-1 cytotoxicity assay): 1470 ± 291 µg/mL (≈ 5730 µM)
cytotoxicity against normal cells (in words) (WI-38 cells): negligible cytotoxicity

Superoxide anion scavenging IC50 [8]: 42.06 ± 1.35 µg/mL
Compound: O=c1c(O)c(-c2ccc(O)c(O)c2)oc2cc(O)cc(O)c12 [Quercetin, quercetin]

Iron chelating activity IC50 [2]: 3095.13 ± 438.00 µg/mL
Compound: COC(=O)[C@H]1[C@H]2C[C@@H]3c4[nH]c5cc(OC)ccc5c4CCN3C[C@H]2C[C@@H](OC(=O)c2cc(OC)c(OC)c(OC)c2)[C@@H]1OC [Reserpine, reserpine]
in vitro iron chelation ability (in words) [2]: failed to chelate iron
IC50 at 48 h (WST-1 cytotoxicity assay): 44.8 ± 2.06 µg/mL (≈ 73.6 µM)
cytotoxicity against normal cells (in words) (WI-38 cells): most toxic compound

Compound: C[C@@H]1O[C@@H](OC[C@H]2O[C@@H](Oc3c(-c4ccc(O)c(O)c4)oc4cc(O)cc(O)c4c3=O)[C@H](O)[C@@H](O)[C@@H]2O)[C@H](O)[C@H](O)[C@H]1O [Rutin, rutin]
IC50 at 48 h (WST-1 cytotoxicity assay): 1230 ± 195 µg/mL (≈ 2020 µM)
cytotoxicity against normal cells (in words) (WI-38 cells): negligible cytotoxicity

Hydrogen peroxide (H2O2) scavenging IC50 [9]: 3240 ± 300 µg/mL
Compound: CC(=O)C(=O)[O-].[Na+] [Sodium pyruvate, sodium pyruvate]

Iron chelating activity IC50 [2]: 50.22 ± 0.85 µg/mL
Compound: tannic acid
in vitro iron chelation ability (in words) [2]: most effective chelator
Cytotoxicity assay IC50 (WI-38 cells): 581.03 ± 64.97 µg/mL

Reference: article PMC4444084, “An Antioxidant Extract of the Insectivorous Plant Drosera burmannii Vahl. Alleviates Iron-Induced Oxidative Stress and Hepatic Injury in Mice” (PLoS ONE, 2015)
